One compound from PMC11546339, “Conformational Plasticity Enhances the Brain Penetration of a Metabolically Stable, Dual-Functional Opioid-Peptide CycloAnt” (International Journal of Molecular Sciences, 2024) can be followed below.

Data set [1] is described as follows: LC-MS/MS search for metabolites in mouse plasma after i.p. administration. Type of data set: in vivo. To be noted: mouse plasma 15 min after 10 mg/kg i.p.; from m/z intensity. As to the method:
To verify if CycloAnt could be metabolized in vivo, we looked for the possible metabolites (Scheme S1) in a blood sample collected from mice 15 min after i.p. administration of CycloAnt at a dose of 10 mg/kg. The proteins in the mouse plasma were precipitated by ice-cold acetonitrile containing internal standard. Following centrifugation, the supernatant was collected, and analyzed by LC-MS/MS. A total ion current (TIC) scan was conducted for the mass-to-charge ratio (m/z) in the range of 300–1500 for all ions, followed by the targeted narrow range scans. The scans in the range of 650–690 and 325–346 are aimed at detecting the potential [M + 1]^+ and [M + 2]^2+ ions from the Phase I metabolites, the enzymatically cleaved peptides, and intact CycloAnt, respectively (Figure S1 and Figure 2); and the scans in the range of 843–852 and 422–428 are for detecting the potential [M + 1]^+ and [M + 2]^2+ ions from the Phase II glucuronidation, respectively (Figure S3). The [M + 1]^+ and [M + 2]^2+ ions were then extracted from the narrow range scans for the potential enzymatically cleaved products (Figure S1), the Phase I metabolites (Figure S2), and the Phase II UGT metabolites (Figure S3). The relative abundance of the tallest peak was assigned as 100. […]

The next data set deals with T1, rat MOR (Rattus norvegicus, UniProt P33535).
T1 construct: expressed in transfected cells
T1 sequence (P33535 whole entry): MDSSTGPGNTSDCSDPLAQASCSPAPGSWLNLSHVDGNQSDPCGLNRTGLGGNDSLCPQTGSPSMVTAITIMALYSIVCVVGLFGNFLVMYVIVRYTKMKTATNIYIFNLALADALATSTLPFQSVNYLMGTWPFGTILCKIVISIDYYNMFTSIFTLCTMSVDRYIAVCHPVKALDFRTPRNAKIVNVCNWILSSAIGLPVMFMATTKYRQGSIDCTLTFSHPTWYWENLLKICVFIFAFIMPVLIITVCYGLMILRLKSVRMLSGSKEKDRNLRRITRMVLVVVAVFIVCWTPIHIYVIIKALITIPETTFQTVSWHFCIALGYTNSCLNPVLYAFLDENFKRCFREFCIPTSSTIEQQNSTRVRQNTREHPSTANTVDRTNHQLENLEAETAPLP
Description: Opioid receptor radioligand binding assay ([3H]diprenorphine), MOR. To be noted: CHO cell membranes, read-out: binding affinity (Ki) at MOR. As to the method:
CycloAnt is a lariat peptide that acts in vivo as a bifunctional MOR agonist and DOR antagonist, which was confirmed in our previous study using opioid receptor individually knock-out (OP KO) mice. In the current study, the binding affinities of CycloAnt to the three opioid receptors are determined using cell-based radioligand opioid receptor binding assays. […] At the KOR, CycloAnt at 1 μM inhibits 6% and at 10 μM inhibits 26% of [^3H]diprenorphine binding.
Opioid receptor radioligand binding assay. Membranes of CHO cells stably expressing the rat MOR, mouse DOR, or human KOR were used in the experiments. [^3H]diprenorphine (PerkinElmer, Waltham, MA, at the time of experiment calculated to have specific activity 35 Ci/mmol) was used as the radioligand for the MOR, DOR, and KOR. Competition inhibition of [^3H]diprenorphine (0.3–0.4 nM) binding to the MOR or DOR was conducted in 50 mM Tris-HCl buffer (pH 7.4) with an adequate number of cell membranes for each receptor and […] of CycloAnt. […] Binding reactions were terminated by rapid filtration under vacuum over GF/B filters presoaked in 0.1% polyethyleneimine, and the bound radioactivity was counted by liquid scintillation counting. […] Binding data were analyzed using GraphPad Prism software (version 10.2.3) and IC50 values (the concentration necessary to inhibit 50 percent of radioligand binding) and Ki values were calculated. […]

Where a SMILES comes first, the peptide text is derived from it. Bridges are numbered along the chain shown (N, C = ends). [ ]: non-standard residue; d: D form. 2Abz = Nc1ccccc1C(=O)O; Dap = NC[C@H](N)C(=O)O

`C[C@@H](O)[C@@H]1NC(=O)[C@H](CNC(=O)c2ccccc2N)NC(=O)[C@H](NC(=O)[C@@H](N)Cc2ccc(O)cc2)CCCCNC(=O)CNC1=O` [CycloAnt] (H-Y[dK][Dap](2Abz)TG; lactam 2-C): in data set [1], the “concentration of any metabolites relative to CycloAnt in plasma (fold lower)” value is on record as 10^3- to-10^4 fold. The inhibitory constant (Ki) on rat MOR was 2.25 ± 0.44 nM.

The term Ki denotes a measure of affinity in units of concentration, obtained from inhibition or displacement.
